In patent US10732172B1, “Methods, systems, and compositions for determining blood clot formation, and uses thereof” (President and Fellows of Harvard College, priority 2015, dated 2020):
“Also recorded” adds a separate entry of the source.

What was measured:
HUVECs = test: Immunostaining of TNF-α stimulated endothelium in microchannel; type: cell-based, human
Protocol: The microfluidic devices are left overnight at 37° C. in a 5% carbon dioxide (“CO2”) incubator, after which they are rinsed with Endothelial Growth Medium-2 (“EGM-2”) from Lonza. Human Umbilical Vein Endothelial Cells (“HUVEC”) from a mixed donor, by Lonza, are kept in culture and suspended at 12.5 million cells/milliliter (“mL”) in EGM-2, after confluence. The suspension is introduced into the collagen-coated microchannels, after which the microfluidic devices are incubated upside down for 20 minutes. A fresh HUVEC suspension is then introduced in the microchannels, after which the microfluidic devices are incubated for eight hours to promote cell attachment across the channel. The microchannels are, then, rinsed with EGM-2, sometimes containing a freshly prepared solution of tumor necrosis factor (“TNF-α”), which is a recombinant from E. coli from Sigma. Antibodies against intercellular adhesion molecule-1 (“ICAM-1”) and vascular adhesion molecule-1 (“VCAM-1”), tissue factor (from Santa Cruz), VWF (from Abcam) and VE-Cadherin (from Santa Cruz) were perfused into the microfluidic devices after fixing the endothelium with 2% paraformaldehyde for ten minutes, incubating the endothelium for three hours, and counterstaining with a secondary fluorescent IgG antibody for three hours.
Multiple endothelial adhesion molecules are involved in the recruitment of blood cells and platelets in thrombosis in vivo. In previous studies, treatment of a living endothelium cultured in microfluidic channels with TNF-α results in an increase in expression of surface adhesion molecules, such as ICAM-1 and VCAM-1 within four hours after addition. To explore whether a fixed endothelium retains expression of these and other surface molecules that could potentially exacerbate thrombosis, the endothelium is first activated in the device by adding increasing doses of TNF-α, e.g., 0, 5, and 100 nanograms/millliter (“ng/ml”), for approximately 18 hours. The endothelium cells are fixed with 4% paraformaldehyde in phosphate-buffered saline (“PBS”) for 15 minutes at room temperature, are rinsed three times with PBS, and, then, stored in PBS at 4° C. in a humid environment.
Human umbilical vein endothelial cells (HUVECs, Lonza) were cultured in Endothelial Growth Medium-2 (EGM-2, Lonza) and used between passages 3 and 7. Before seeding HUVECs in the devices, the microchannels were pre-treated with 1% (3-aminopropyl)-trimethoxysilane in phosphate-buffered saline (PBS) for 10 min, flushed sequentially with 70% ethanol in water and 100% ethanol, and then incubated at 80° C. for two hours before rat tail collagen I (100 μg/ml in PBS; BD Biosciences) was introduced in the channels. Some of the devices were used with the collagen coating alone (without cells) after incubation overnight at 37° C. and flushing of the channels with EGM-2. In other studies for comparison, HUVECs (12.5×10^6 cells/ml) were introduced into the collagen-coated channels and incubated for 20 min at 37° C. to promote cell attachment before a second similar HUVEC suspension was then introduced and the devices were incubated upside down for an additional 20 min to seed the cells on the ceiling and walls of the microfluidic channels. Channels were then flushed with EGM-2 and the devices were incubated at 37° C. under 5% CO2 for 24 hours to promote HUVEC monolayer formation on all exposed surfaces of the microchannel. In some cases, the medium was supplemented with one or more inflammatory cytokines (e.g., 5 or 100 ng/ml TNF-α (Sigma)) to activate the HUVEC monolayer. Fluorescence microscopy was performed on endothelium that was fixed with 4% formaldehyde (Sigma) and stained with antibodies against TF (Santa Cruz), vWF (Abeam), VE-Cadherin (Santa Cruz), followed by counterstaining with phalloidin and DAPI (Invitrogen).

HUVECs and platelets = test: Platelet adhesion and dynamics on TNF-α stimulated endothelium (living or fixed), whole blood perfusion; type: cell-based, human; conditions: TNF-α 5 ng/ml before fixation; kept 1 day or 5 days; versus no TNF-α
[1] = TNF-α before fixation, versus untreated

## tumor necrosis factor-α [TNF-α]
HUVECs; HUVECs stimulated with various doses of TNF-α
  ICAM-1 expression on living endothelium: increased with increase in TNF concentration; also recorded: dose-dependent activation of ICAM-1; also recorded: dose-dependent surface expression of adhesion molecule ICAM-1; also recorded: increased in a dose-dependent manner
HUVECs; HUVECs, TNF-α 5 or 100 ng/ml
  tissue factor (TF) expression on living endothelium: increase in the endothelial expression
  von Willebrand Factor (vWF) expression on living endothelium: increase in the endothelial expression
HUVECs; TNF-α 0, 5, 100 ng/ml for about 18 hours before fixation
  VCAM-1 immunofluorescence on fixed endothelium: dose-dependent increase
HUVECs; TNF-α 0, 5, 100 ng/ml for about 18 hours before fixation, normalized to untreated
  ICAM-1 immunofluorescence on fixed endothelium: dose-dependent increase
HUVECs; [1]
  VWF immunofluorescence on fixed endothelium: dose-dependent increase; also recorded: higher levels
  tissue factor immunofluorescence on fixed endothelium: dose-dependent increase; also recorded: higher levels
HUVECs and platelets
  platelet adhesion rate on fixed HUVECs: significantly higher
